Experiments:
[1] = target: Monoclonal antibodies to the junction region of βAP; test: Saturation analysis (RIA): displacement of 125I-labeled βAP1-28 from junction-region hybridoma clones by unlabeled peptide; format: binding, mice
Protocol: The RIA method used to screen serum bleeds and fusion hybridoma supernatants was based upon a method developed by Wang et al. (1977) J. Immunol. Methods 18:157-164. Briefly, the supernatant (or serum) was incubated overnight at room temperature on a rotator with ^125I-labeled βAP1-28 and Sepharose® 4B beads to which sheep anti-mouse IgG had been coupled via cyanogen bromide. The beads from each well were harvested onto glass fiber filter discs with a cell harvester and washed several times with PBS. The filter discs were then transferred to gamma tubes and the bound radioactivity was counted in a gamma counter.
Based on results of the above assays, several clones were expanded into 24 well plates. These clones were further characterized by saturation analysis. Supernatants at the 50% titer point (as determined by the RIA method described above) were added to wells containing Sepharose®-sheep anti-mouse IgG beads, a constant amount of ^125I-labeled βAP1-28, and varying amounts of unlabeled βAP13-28 or βAP17-28. The concentration of cold peptide for 50% inhibition was determined for each antibody. […] The 50% inhibition point for βAP13-28 ranged from 10-80 ng/well. The clones were also characterized based on reactivity in Western blots. Based on titer point, sensitivity (as determined by the 50% inhibition point), and reactivity on Western blot, several clones were produced in ascites.

[2] = tested on: 266 capture antibody and 10D5 reporter antibody; test: βAP cross-reactivity in 266/10D5 sandwich ELISA; format: binding; settings: molecule at 1-1000 ng/ml
Protocol: Monoclonal antibody 266 was diluted to a concentration of 5 µg/ml, and monoclonal antibody 067 to 10 µg/ml in a buffer containing NaH2PO4·7H2O, 26.2 g/L; NaN3, 1 g/L; pH 8.3. One hundred µl/well of this solution was then dispensed in a 96 well polystyrene transparent COSTAR plate and incubated overnight at room temperature. Following coating, the remaining solution was aspirated and the non-specific antibody binding sites were blocked with 0.25% human serum albumin (HSA) dissolved in a buffer containing NaH2PO4·H2O, 1 g/L; Na2HPO4·7H2O, 10.8 g/L; NaN3, 0.5 g/L and sucrose, 25 g/L; pH 7.4. These coated/blocked plates were used immediately or dried in a desiccator and stored in a dry container at 4°C for a maximum of 5 days.
Calibrators containing known amounts of βAP and samples from various bodily or extra bodily fluids were then added to the plate at 100 µl/well. The samples were added undiluted or diluted in a buffer containing NaH2PO4·H2O, 0.2 g/L; Na2HPO4·7H2O, 2.16 g/L; NaN3, 0.5 g/L; BSA (globulin free) 6 g/L; Triton X-405, 0.5 mL/L; NaCl, 8.5 g/L; pH 7.4. Samples and calibrators were incubated in the wells for 1 hour at room temperature, subsequently aspirated, and the wells washed with 300 µl/well of a solution containing NaCl, 80 g/L; KCl, 3.8 g/L; Tris base, 5.85 g/L; Tris HCl, 31.75 g/L; and 0.05% Tween® 20; pH 7.5 (TBS).
NHS-biotin (15 mg) was dissolved in 0.25 ml dimethylsulfoxide, and 10 µl of this solution was added to 1 mg of 10D5 or 6C6 antibody suspended in 1 ml of sodium carbonate solution, 50 mM, pH 8.5. The mixture was incubated in the dark for 1½ hours at room temperature and then dialyzed against phosphate buffered saline, pH 7.4 for 48 hours at 4°C, to produce biotinylated reporter antibody. One hundred µl/well of the biotinylated reporter antibody (10D5 or 6C6) diluted to 3 µg/ml was then added to each well and incubated for another hour at room temperature. The antibody diluent consisted of Trizma base, 1.21 g/L; NaCl, 29.22 g/L; NaN3, 1.5 g/L, Triton X 405, 0.5 ml/L; PEG (Mw 3350), 40 g/L; Mg Cl2·6H2O, 0.095 g/L; ZnCl2, 0.014 g/L; fetal bovine serum 100 ml/L; and BSA 2.5 g/L, pH 7.4.
After 1 hour incubation at room temperature with the reporter antibody (10D5 or 6C6) the supernatant was aspirated and the wells were washed three times with 300 µl/well of TBS. Streptavidin alkaline phosphatase (100 µl/well, diluted 1:2000 in the conjugate diluent buffer) was added and incubated for another hour at room temperature. […] Fluorescent substrate (4-methyl-umbellipheryl phosphate in 2-amino-2-methyl […] buffer; pH 9.5; (100 µl/well) was added) and fluorescence read and expressed as relative fluorescent units ([…]) after 15 minutes using a Cytofluor 2300 from Millipore, with 360/40 excitation filter and 460/40 emission filter. […]

Substance	%Cross-Reactivity [2] [%]	further results
βAP13-28 (HHQKLVFFAEDVGSNK; Amyloid-beta protein 42; UniProt P05067 684-699, looked up, fragment)	–	concentration of cold peptide for 50% inhibition ([1]; range over the clones, supernatants at the 50% titer point, 125I-labeled βAP1-28): 10-80 ng/well
βAP17-28 (LVFFAEDVGSNK; Amyloid-beta protein 42; UniProt P05067 688-699, looked up, fragment)	–	inhibition of 125I-labeled βAP1-28 binding ([1]; at 100 ng/well, any clones): no inhibition
βAP Fragment 11-18 (EVHHQKLV; Amyloid-beta protein 42; UniProt P05067 682-689, looked up, fragment)	0	–
βAP Fragment 13-18 (HHQKLV; Amyloid-beta protein 42; UniProt P05067 684-689, looked up, fragment)	0	–
βAP Fragment 13-20 (HHQKLVFF; Amyloid-beta protein 42; UniProt P05067 684-691, looked up, fragment)	0.2	–
βAP Fragment 15-20 (QKLVFF; Amyloid-beta protein 42; UniProt P05067 686-691, looked up, fragment)	0	–
